The values below are quoted from earlier work in patent US20160303177A1, “NUTRITIONAL SUPPLEMENT” (priority 2015, published 2016).

The conditions of data set [1]: 600 mg prior to exercise.
The conditions of data set [2]: 400 mg at three times per day.
The conditions of data set [3]: washout period.
For data set [4] the following is noted: training in set of 8-15 repetitions.
For data set [5] the following is noted: 300 mg per day.
The conditions of data set [6]: 17.25 grams per day, cyclists.
For data set [7] the following is noted: 5 grams at three times a day along with other medications.
For data set [8] the following is noted: given before animals were cardiac stressed.
For data set [9] the following is noted: 300 mgs of EGCG.
The conditions of data set [10]: two grams of L-Carnitine with 80 mg of carbohydrates.
The conditions of data set [11]: 8 grams of L-Citrulline with 10 grams of carbohydrate.
For data set [12] the following is noted: 6 grams.
For data set [13] the following is noted: diseased hearts, 3 grams a day.
The conditions of data set [14]: 1500 mg per day for 6 weeks, mild to moderate erectile dysfunction.
For data set [15] the following is noted: 500 milligrams of nitrate, runners.
The conditions of data set [16]: healthy individuals.
The conditions of data set [17]: 11.2 mmol/kg of nitrate.

Turning to `C[N+](C)(C)CCOP(=O)([O-])OC[C@H](O)CO` [Alpha GPC, Alpha Glycerylphosphorylcholine], in [1], the “peak increase in peak force production during resistance exercise” value is given as 14%. The “cognition in mild to moderate Alzheimer's dementia” value in data set [2] is “cognitive improvement”.

Regarding `NCCC(=O)O` [Beta-Alanine], in [3], the “time after supplementation still in the muscles at higher levels” value was 8 weeks. Besides, the “additional reps in the gym” value in data set [4] is recorded as “one to two additional reps”.

As for `COC1=C(OC)C(=O)C(C/C=C(\C)CC/C=C(\C)CC/C=C(\C)CC/C=C(\C)CC/C=C(\C)CC/C=C(\C)CC/C=C(\C)CC/C=C(\C)CC/C=C(\C)CCC=C(C)C)=C(C)C1=O` [CoQ 10, Coenzyme Q10], the half-life (as a rule, the time needed for the level to fall by half in the phase considered) (in vivo) was 5.8 to 8.10 h. Also, the “increase in CoQ10 concentrations” value (supplementation with 90-120 mg) is recorded as 50-150%. The fatigue during exertion result in data set [5] is on record as “reduce fatigue during the late portions of exertion”.

For the compound `O=C[C@H](O)[C@H](O)[C@H](O)CO` [D-Ribose], the “rates of ATP production” value in data set [6] is listed as “increased the rates of ATP production back to pre-exercise levels”. Besides, the fibromyalgia symptoms result in data set [7] is “marked decrease in symptoms”. Besides, in [8], the “held out longer before ischemia compared to placebo” value is recorded as 25%.

Regarding `O=C(O[C@@H]1Cc2c(O)cc(O)cc2O[C@@H]1c1cc(O)c(O)c(O)c1)c1cc(O)c(O)c(O)c1` [EGCG, epigallocatechin gallate], in data set [9], the “source of energy when taken with a meal” value is listed as “a greater proportion of energy comes from dietary fat rather than carbohydrate”.

With `C[N+](C)(C)C[C@H](O)CC(=O)[O-]` [L-Carnitine], in data set [10], the fat burning result is listed as “increased fat burning” and the “increase in muscle carnitine content” value is recorded as 21%.

For `NC(=O)NCCC[C@H](N)C(=O)O` [L-Citrulline], the delay in fatigue result in data set [11] is on record as “statistically significant delay in fatigue”. For the same compound, in data set [12], the ATP production result is “increased ATP production”, the ammonia production result is “reduced ammonia production”, the muscle protein synthesis entry is recorded as “increased muscle protein synthesis” and the “reduction of creatine depletion” value is on record as 28%. In addition, in [13], the blood pressure result was “decrease in blood pressure”, the exercise abilities entry was “increase in exercise abilities” and the “right ventricular ejection fraction” value is recorded as “increase in right ventricular ejection fraction”. Further, in data set [14], the “men with increase in erection hardness” value is 50%.

As for `O=[N+]([O-])O` [nitrate], the “improvement of 5K time” value in data set [15] is 41 s. The “reduced VO2 (oxygen consumption)” value in data set [16] (0.1 mmol/kg of nitrate) was 5.4%. In [16] (6.2 mmol/kg of nitrate), the “increase in time to fatigue” value is 15%. In data set [16], the “increase in energy efficiency” value is on record as 7.1%. Moreover, the “reduction of oxygen muscle extraction” value in data set [17] is 19%.
